Series [1] addresses Pasteurella multocida α2-3-sialyltransferase 1 (PmST1), wild type (WT), SEQ ID NO: 13 (Pasteurella multocida, UniProt Q15KI8). The settings on record: apparent, acceptor, read-out: Km for LacβMU; cited from earlier work.
Series [2] deals with Pasteurella multocida PmST1 mutant R313Y of SEQ ID NO: 13 (R289Y of Δ24PmST1, SEQ ID NO: 9) (Pasteurella multocida, UniProt Q15KI8, R313Y). Description: α2-3-sialyltransferase activity, LacβMU as acceptor. It is filed as biochemical. Particulars: apparent, acceptor, CMP-Neu5Ac 1 mM, Tris-HCl pH 8.5, 37° C. On the procedure: (§1) To obtain the apparent kinetic parameters of LacβMU as the acceptor for the α2-3-sialyltransferase activity, the kinetic assays were performed in duplicate in reaction mixtures of 10 μL containing Tris-HCl buffer (100 mM, pH 8.5), a fixed concentration of CMP-Neu5Ac (1 mM), different concentrations of LacβMU (0.2, 0.5, 1.0, 2.0, 5.0, and 9.0 mM) and the mutant proteins (2 μg mL^−1 of E271F, 2 μg mL^−1 of R313Y, and 1.6 μg mL^−1 of E271F/R313Y). All reactions were allowed to proceed at 37° C. for 5 min (E271F), 7 min (R313Y), and 10 min (E271F/R313Y). The apparent kinetic parameters were obtained by fitting the experimental data (the average values of duplicate assay results) into the Michaelis-Menten equation using Grafit 5.0.
(§2) To obtain the apparent kinetic parameters of CMP-Neu5Ac as the donor for the α2-3-sialyltransferase activity, the kinetic assays were performed in duplicate in reaction mixtures of 10 μL containing Tris-HCl buffer (100 mM, pH 8.5), a fixed concentration of LacβMU (1 mM), different concentrations of CMP-Neu5Ac (0.1, 0.2, 0.5, 1.0, 2.0, 5.0, 10.0 and 20.0 mM) and the mutant proteins (2 μg mL^−1 of E271F, 2 μg mL^−1 of R313Y, and 1.6 μg mL^−1 of E271F/R313Y). All reactions were allowed to proceed at 37° C. for 2 min (E271F), 7 min (R313Y), and 5 min (E271F/R313Y). The apparent kinetic parameters were obtained by fitting the experimental data (the average values of duplicate assay results) into the Michaelis-Menten equation using Grafit 5.0.
(§3) All the sialidase and α2-3-sialyltransferase assays were performed in an HPLC system. Reactions were stopped by adding 10 μL of ethanol. After necessary dilutions were performed to adjust the concentrations of the fluorescent-labeled compounds, the samples were then kept on ice until aliquots of 8 μL were injected and analyzed by a Shimadzu LC-6AD system equipped with a membrane on-line degasser, a temperature control unit, and a fluorescence detector (Shimadzu RF-10AXL). A reverse-phase Premier C18 column (250×4.6 mm i.d., 5 μm particle size, Shimadzu) protected with a C18 guard column cartridge was used. The mobile phase was 25% acetonitrile. The fluorescent compounds LacβMU and Neu5Acα2-3LacβMU were detected by excitation at 325 nm and emission at 372 nm.

In series [3] the target is Pasteurella multocida PmST1 mutant E271F of SEQ ID NO: 13 (E247F of Δ24PmST1, SEQ ID NO: 7) (Pasteurella multocida, UniProt Q15KI8, E271F). The series is described as above. It is filed as biochemical. The settings on record: apparent, acceptor, CMP-Neu5Ac 1 mM, Tris-HCl pH 8.5, 37° C. How it is done:
as §1, §2, §3

For series [4], the target named is Pasteurella multocida PmST1 double mutant E271F/R313Y of SEQ ID NO: 13 (E247F/R289Y of Δ24PmST1, SEQ ID NO: 11) (Pasteurella multocida, UniProt Q15KI8, E271F/R313Y). The series is described as above. In kind it is biochemical. The settings on record: apparent, acceptor, CMP-Neu5Ac 1 mM, Tris-HCl pH 8.5, 37° C. How it is done:
as §1, §2, §3

The target in series [5] is T1, Pasteurella multocida PmST1 mutant M144H of SEQ ID NO: 13 (M120H of Δ24PmST1, SEQ ID NO: 5) (Pasteurella multocida, UniProt Q15KI8, M144H). The description is as above. In kind it is biochemical. The settings on record: apparent, acceptor, CMP-Neu5Ac 1 mM, Tris-HCl pH 8.5, 37° C. On the procedure: (§4) Site-directed mutagenesis, expression and purification of PmST1 mutants. Site-directed mutagenesis was performed using the QuikChange multi-site-directed mutagenesis kit from Stratagene according to the manufacturer's protocol. The primers used were 5′-[…]-3′ (SEQ ID NO:35) for M144D; 5′-[…]a[…] -3′ (SEQ ID NO:36) for M144H; 5′-[…]-3′ (SEQ ID NO:37) for A35D; and 5′-[…]-3′ (SEQ ID NO:38) for A35H. The expression and purification of the mutants were performed as previously described for the WT PmST1 .
(§5) Kinetics of the α2-3-sialyltransferase activity of PmST1 mutants by HPLC analysis. With LacβMU as the acceptor substrate, the reactions were performed in duplicate at 37° C. for 10 min (M144D) or 4 min (M144H) in a reaction mixture (10 μL) containing Tris-HCl (100 mM, pH 8.5), an enzyme (5 μg mL^−1), and different concentrations (0.2, 0.5, 1.0, 2.0, and 5.0 mM) of LacβMU with a fixed concentration (1 mM) of CMP-Neu5Ac or different concentrations (0.2, 0.5, 1.0, 2.0, 5.0, and 10.0 mM) of CMP-Neu5Ac with a fixed concentration (1 mM) of LacβMU. With Le^xβMU as the acceptor substrate, the reactions were carried out in duplicate at 37° C. for 9 min (M144D) or 10 min (M144H) in a reaction mixture (10 μL) containing CAPSO (100 mM, pH 9.5), an enzyme (M144D, 39 μg mL^−1 or M144H, 5 μg mL^−), and various concentrations of Le^xβMU (1.0, 5.0, 10.0, 15.0, 25.0, and 35.0 mM) with a fixed concentration (1 mM) of CMP-Neu5Ac or various concentrations (0.2, 0.5, 1.0, 2.0, 5.0, 10.0, 20.0, and 40.0 mM) of CMP-Neu5Ac with a fixed concentration (1 mM) of Le^xβMU. Reactions were stopped by adding 10 μL of pre-chilled ethanol. The mixtures were incubated on ice for 30 min and centrifuged at 13,000 rpm for 5 min. The supernatants were diluted with 25% acetonitrile and kept on ice until aliquots of 8 μL were injected and analyzed by the Shimadzu LC-6AD system equipped with a membrane on-line degasser, a temperature control unit, and a fluorescence detector (Shimadzu RF-10AXL). A reverse-phase Premier C18 column (250×4.6 mm i.d., 5 μm particle size, Shimadzu) protected with a C18 guard column cartridge was used. The mobile phase was 25% acetonitrile. The fluorophore (MU)-labeled compounds were detected by excitation at 325 nm and emission at 372 nm. The apparent kinetic parameters were obtained by fitting the experimental data (the average values of duplicate assay results) into the Michaelis-Menten equation using Grafit 5.0.

Series [6] has as its target T2, Pasteurella multocida PmST1 mutant M144D of SEQ ID NO: 13 (M120D of Δ24PmST1, SEQ ID NO: 3) (Pasteurella multocida, UniProt Q15KI8, M144D). Described as above. In kind it is biochemical. Particulars: apparent, acceptor, CMP-Neu5Ac 1 mM, Tris-HCl pH 8.5, 37° C. On the procedure: as §4, §5
For series [7], the target named is T1, Pasteurella multocida PmST1 mutant M144H of SEQ ID NO: 13 (M120H of Δ24PmST1, SEQ ID NO: 5). Description: α2-3-sialyltransferase activity, Le^xβMU as acceptor. It is filed as biochemical. Particulars: apparent, acceptor, CMP-Neu5Ac 1 mM, CAPSO pH 9.5, 37° C. How it is done:
as §4, §5

Series [8] deals with T2, Pasteurella multocida PmST1 mutant M144D of SEQ ID NO: 13 (M120D of Δ24PmST1, SEQ ID NO: 3). Described as above. It is filed as biochemical. The settings on record: apparent, acceptor, CMP-Neu5Ac 1 mM, CAPSO pH 9.5, 37° C. How it is done:
as §4, §5

The subject of series [9] is CC(=O)N[C@H]1[C@H]([C@H](O)[C@H](O)CO)O[C@](OP(=O)(O)OC[C@H]2O[C@@H](n3ccc(N)nc3=O)[C@H](O)[C@@H]2O)(C(=O)O)C[C@@H]1O. Nature of the series: purified protein, by the assay type. Particulars: other: apparent, donor hydrolysis, D141A, Tris-HCl pH 8.5, 37° C., 40 min.
Protocol: The reactions were stopped by adding 10 μL of pre-chilled ethanol. The mixtures were incubated on ice for 30 min and centrifuged at 13,000 rpm for 5 min. The supernatants were diluted with borate buffer (25 mM, pH 9.5) and aliquotes of 5 μL each were injected to a Beckman Coulter P/ACE™ MDQ Capillary Electrophoresis system equipped with a capillary (60 cm×75 μm i.d.) and monitored at 254 nm. The apparent kinetic parameters were obtained by fitting the experimental data (the average values of duplicate assay results) into the Michaelis-Menten equation using Grafit 5.0.
Series [10] has as its system CC(=O)N[C@H]1[C@H]([C@H](O)[C@H](O)CO)O[C@@](O[C@H]2[C@@H](O)[C@@H](CO)O[C@@H](O[C@H]3[C@H](O)[C@@H](O)[C@H](Oc4ccc5c(C)cc(=O)oc5c4)O[C@@H]3CO)[C@@H]2O)(C(=O)O)C[C@@H]1O. Nature of the series: α2-3-sialidase activity, Neu5Acα2-3LacβMU as substrate. It is filed as biochemical, Pasteurella multocida. The settings on record: other: apparent, D141A, MES pH 5.5, 37° C., 60 min. How it is done: Kinetic Assays. […] The apparent kinetic parameters were obtained by fitting the experimental data (the average values of duplicate assay results) into the Michaelis-Menten equation using Grafit 5.0.
as §3

As for `Cc1cc(=O)oc2cc(O[C@@H]3O[C@H](CO)[C@@H](O[C@@H]4O[C@H](CO)[C@H](O)[C@H](O)[C@H]4O)[C@H](O)[C@H]3O)ccc12` [LacβMU, 4-methylumbelliferyl β-lactoside], the Km in series [1] is 1400 µM. Further, the “kcat (LacβMU)” value turned out to be 19 ± 1 s⁻¹ in series [2]; 28 ± 1 s⁻¹ in [3]; 17 ± 1 s⁻¹ in series [4]; 21 ± 1 s⁻¹ in [5]; 22 ± 1 s⁻¹ in series [6].
As for `CC(=O)N[C@H]1[C@H](Oc2ccc3c(C)cc(=O)oc3c2)O[C@H](CO)[C@@H](O[C@@H]2O[C@H](CO)[C@H](O)[C@H](O)[C@H]2O)[C@@H]1O[C@@H]1O[C@@H](C)[C@@H](O)[C@@H](O)[C@@H]1O` [Le^xβMU, 4-methylumbelliferyl β-Le^x], the “kcat (Le^xβMU)” value in series [7] was found to be 8.4 ± 0.3 s⁻¹; in series [8], 4.0 ± 0.2 s⁻¹.
“Pasteurella multocida PmST1 mutant D141A (Pasteurella multocida; D141A)”: the figures for the Michaelis-Menten constant (Km) in series [9] and in series [10] were 1400 ± 200 µM and 15000 ± 1000 µM, respectively.

Source of the values: patent publication US9255257B2, “PmST1 mutants for chemoenzymatic synthesis of sialyl lewis X compounds” (THE REGENTS OF THE UNIVERSITY OF CALIFORNIA, priority 2011, dated 2016).
